# Measured values from article PMC6405930, “Conservation of the Amyloid Interactome Across Diverse Fibrillar Structures” (Scientific Reports, 2019).
# Legend:
# αSN fibrils [1] = biological target: T1, αSN fibrils (Homo sapiens, UniProt P37840); test: Fibril titration with ThT (fluorescence); type: binding; details: titration experiment
# Protocol: (§1) Fibril material (7.5 μg) was set up in 100 μL phosphate buffer in a 96 well half-area NBS plate (NUNC/Terma).
# C-36 fibrils [2] = biological target: T2, C-36 fibrils (Homo sapiens, UniProt P01009); test: Fibril titration with ThT (fluorescence); type: binding
# T2 construct: the 36 residue C-terminal fragment of α1-antitrypsin (C-36)
# T2 sequence (P01009 383-418 limits assumed): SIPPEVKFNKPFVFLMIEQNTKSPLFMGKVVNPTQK
# Protocol: as §1
# Ab1 fibrils (Aβ(1–40)) = Ab1 fibrils (Aβ(1–40)) (Homo sapiens, UniProt P05067); test: Fibril titration with ThT (fluorescence); type: binding
# Chain of Ab1 fibrils (Aβ(1–40)) (P05067 672-711): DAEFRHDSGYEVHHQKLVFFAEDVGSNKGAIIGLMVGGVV
# Protocol: as §1
# Ab2 fibrils (Aβ(1–40)) = Ab2 fibrils (Aβ(1–40)) (Homo sapiens, UniProt P05067); test: Fibril titration with ThT (fluorescence); type: binding
# Chain of Ab2 fibrils (Aβ(1–40)) (P05067 672-711): as above
# Protocol: as §1
# [3] = system: chymotrypsinogen amorphous aggregates; test: Fibril titration with ThT (fluorescence); type: binding; details: TCA-induced amorphous aggregates
# Protocol: as §1
# glucagon fibrils [4] = biological target: T3, glucagon fibrils (Homo sapiens, UniProt P01275); test: Fibril titration with ThT (fluorescence); details: 7.5 μg fibril material, single-site binding model
# T3 construct: fibrils of the peptide hormone glucagon
# T3 sequence (P01275 53-81 limits assumed): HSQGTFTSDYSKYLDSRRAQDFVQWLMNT
# Protocol: as §1
# Ab2 fibrils [5] = system: T4, Ab2 fibrils; test: Determination of the binding capacity (dye depletion from supernatant); design: species or system human; details: 2 nmol dye (20 µM) with 10 μg fibril material, one hour
# T4 construct: Two structurally distinct fibrils of the Aβ(1–40) peptide associated with AD
# Protocol: (§2) Control samples (without fibril material) were prepared similarly. Fibrils and fibril-bound ligand were pelleted by centrifugation (17,000 g, 30 min) and the supernatant (90 μL) was transferred to a 96 well half-area plate (Corning 3881).
# Ab1 fibrils [6] = system: T5, Ab1 fibrils; test: as above; design: species or system human; details: 2 nmol dye (20 µM) with 10 μg fibril material, one hour
# T5 construct: Synthetic amyloid β peptide 1–40 was purchased from Caslo Aps (Lyngby, Denmark); purchased Caslo Aps (Lyngby, Denmark); host or cells: synthetic peptide
# Protocol: as §2
# αSN fibrils [7] = biological target: T1, αSN fibrils; test: as above; details: 2 nmol dye (20 µM) with 10 μg fibril material, one hour
# Protocol: as §2
# C-36 fibrils [8] = biological target: T2, C-36 fibrils; test: as above; details: 2 nmol dye (20 µM) with 10 μg fibril material, one hour
# Protocol: as §2
# glucagon fibrils [9] = biological target: T3, glucagon fibrils; test: as above; details: 2 nmol dye (20 µM) with 10 μg fibril material, one hour
# Protocol: as §2
# FAS4 AD aggregates = system: T6, FAS4 AD aggregates; test: Fibril titration with ThT (fluorescence); type: binding, human; details: ThT mixed with FAS4 AD aggregates
# T6 construct: a mutated version of the FAS1-4 domain of TGFBIp
# Protocol: as §1
# C-36 fibrils [10] = biological target: T2, C-36 fibrils; test: Fibril incubation with CSF, quantitative MS/MS of bound proteins; type: binding; details: 4:1 w/w CSF protein:fibril
# C-36 fibrils [11] = biological target: T2, C-36 fibrils; test: Fibril incubation with plasma, quantitative MS/MS of bound proteins; type: binding; details: 50:1 w/w plasma protein:fibril
# αSN fibrils [12] = biological target: T1, αSN fibrils; test: Fibril incubation with CSF, quantitative MS/MS of bound proteins; type: binding; details: 4:1 w/w CSF protein:fibril
# glucagon fibrils [13] = biological target: T3, glucagon fibrils; test: as above; type: binding; details: 4:1 w/w CSF protein:fibril
# Ab2 fibrils [14] = system: T4, Ab2 fibrils; test: Fibril incubation with plasma, quantitative MS/MS of bound proteins; type: binding, human; details: 50:1 w/w plasma protein:fibril
# glucagon fibrils [15] = biological target: T3, glucagon fibrils; test: as above; type: binding; details: 50:1 w/w plasma protein:fibril
# [16] = system: fibril systems (Ab1, Ab2, glucagon, αSN and C-36); test: Fibril incubation with CSF, quantitative MS/MS, span over the fibril systems; type: binding, human
# Protocol: Plasma and CSF solutions were centrifuged (40,000 g, 20 min) to remove any aggregates. The protein concentration was determined using 280 nm absorbance assuming 1 Abs = 1 mg/mL. […] Control samples (without fibril material) were prepared similarly. All samples were incubated at room temperature for one hour under gentle agitation. Fibrils and fibril-bound proteins were pelleted by centrifugation at 17,000 g for 30 minutes. The supernatant (175 μL) was removed and the aggregate was re-suspended in 175 μL PBS and pelleted again before further preparation for gel analysis and spin-filter assisted digest for quantitative MS/MS. […]
# (§3) The micro-purified tryptic peptides were dissolved in 0.1% formic acid, injected and trapped on an in-house packed trap column (2 cm × 100 μm I.D) with RP ReproSil-Pur C18-AQ 3 μm resin (Dr. Maisch GmbH). […] Elution from the analytical column was performed with a linear gradient from 5% to 35% phase B (90% acetonitrile with 0.1% formic acid) over 20 min for protein identification and 50 min for quantitative analysis, respectively.
# All samples were analysed three times, yielding nine MS/MS experiments for each fibril for both plasma and CSF. […]
# Ab1 fibrils [17] = system: T5, Ab1 fibrils; test: Fibril incubation with plasma, quantitative MS/MS of bound proteins; type: binding, human; details: 50:1 w/w plasma protein:fibril
# How it was run: (§4)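 Bound proteins quantified by XIC (three most abundant peptides), each normalized to run total intensity and averaged across nine LC-MS/MS experiments. Pellets came from 1 h room-temperature incubation of 20 μg fibrils with 500 μg plasma or 40 μg CSF protein in PBS with 5 mM EDTA.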
# FAS4-AD aggregates [18] = system: T7, FAS4-AD aggregates; test: as above; type: binding, human; details: 50:1 w/w plasma protein:fibril
# T7 construct: aggregates of a mutated version of the FAS1-4 domain of TGFBIp
# How it was run: as §4
# FAS4-AD aggregates [19] = system: T7, FAS4-AD aggregates; test: Fibril incubation with CSF, quantitative MS/MS of bound proteins; type: binding, human; design: key to Identification status of CSF protein bound: FAS4-AD: *: Identified, but not quantified; —: Not identified in any of the samples; details: symbol cells
# [20] = system: fibril systems (Ab1, Ab2, glucagon, αSN and C-36); test: Fibril incubation with plasma, quantitative MS/MS, span over the fibril systems; type: binding, human
# Protocol: Plasma and CSF solutions were centrifuged (40,000 g, 20 min) to remove any aggregates. The protein concentration was determined using 280 nm absorbance assuming 1 Abs = 1 mg/mL. […] Control samples (without fibril material) were prepared similarly. All samples were incubated at room temperature for one hour under gentle agitation. Fibrils and fibril-bound proteins were pelleted by centrifugation at 17,000 g for 30 minutes. The supernatant (175 μL) was removed and the aggregate was re-suspended in 175 μL PBS and pelleted again before further preparation for gel analysis and spin-filter assisted digest for quantitative MS/MS.
# The fibril-protein pellets were transferred to spin-filters (0.22 μm), washed twice in PBS (100 μL) and once in 1 M NaCl (100 μL). The fibrils and fibril-bound proteins were dissolved by one-hour incubation in 100 μL 6 M guanidinium chloride followed by elution from the spin-filter. […]
# as §3
# All samples were analysed three times, yielding nine MS/MS experiments for each fibril for both plasma and CSF. For the area-based extracted ion chromatogram (XIC) quantification, the acquisition method was set up as an information-dependent acquisition (IDA) experiment collecting up to 25 MS/MS spectra in each 1.6 sec cycle using an exclusion window of 6 sec. […]
# XIC quantification was based on the average ion intensity of the three most abundant peptides for each protein. Only proteins quantified in at least four out of nine MS/MS experiments per fibril were included in the quantification. […]
# Ab2 fibrils [21] = system: T4, Ab2 fibrils; test: Fibril incubation with CSF, quantitative MS/MS of bound proteins; type: binding, human; details: 4:1 w/w CSF protein:fibril
# Ab1 fibrils [22] = system: T5, Ab1 fibrils; test: as above; type: binding, human; details: 4:1 w/w CSF protein:fibril
# αSN fibrils [23] = biological target: T1, αSN fibrils; test: Fibril incubation with plasma, quantitative MS/MS of bound proteins; type: binding; details: 50:1 w/w plasma protein:fibril
# How it was run: as §4
# [24] = 7.5 μg fibril material, two-site binding model
compound,measurement,setting,value
"Cc1ccc2c(c1)sc(-c1ccc(N(C)C)cc1)[n+]2C [ThT, Thioflavin T]",ThT fluorescence level,αSN fibrils [1],"2–5,000 RFU"
same,maximum ThT fluorescence intensity (Imax),"C-36 fibrils [2]; 7.5 μg fibril material, single-site binding model","12,500 rfu"
same,Kd,"C-36 fibrils [2]; 7.5 μg fibril material, single-site binding model, read-out: dissociation constant (kd)",0.63 µM
same,ThT fluorescence level,C-36 fibrils [2]; titration experiment,"12,500 RFU"
same,Imax1,Ab1 fibrils (Aβ(1–40)); [24],"23,000 rfu"
same,Imax2,Ab1 fibrils (Aβ(1–40)); [24],"−22,000 rfu"
same,ThT fluorescence level,Ab1 fibrils (Aβ(1–40)); titration experiment,"2–5,000 RFU"
same,Imax1,Ab2 fibrils (Aβ(1–40)); [24],"23,000 rfu"
same,Imax2,Ab2 fibrils (Aβ(1–40)); [24],"−21,250 rfu"
same,ThT fluorescence level,Ab2 fibrils (Aβ(1–40)); titration experiment,"2–5,000 RFU"
same,ThT signal,[3],did not result in any ThT signal
same,maximum ThT fluorescence intensity (Imax),glucagon fibrils [4],"1,000 rfu"
same,Kd,glucagon fibrils [4]; read-out: dissociation constant (kd),1.45 µM
same,Ligand bound (binding capacity),Ab2 fibrils [5],35 nmol/mg fibril
same,Ligand bound (binding capacity),Ab1 fibrils [6],42 nmol/mg fibril
same,Ligand bound (binding capacity),αSN fibrils [7],42 nmol/mg fibril
same,Ligand bound (binding capacity),C-36 fibrils [8],10 nmol/mg fibril
same,Ligand bound (binding capacity),glucagon fibrils [9],18 nmol/mg fibril
same,ThT fluorescence,FAS4 AD aggregates,did not detect any fluorescence
Vitronectin: plasma/CSF protein bound to fibrils,Relative composition of CSF proteins bound: C-36,C-36 fibrils [10],0.8 ± 0.1 % of total protein
same,Relative composition of plasma proteins bound: C-36,C-36 fibrils [11],4.9 ± 0.5 % of total protein
same,Relative composition of CSF proteins bound: αSN,αSN fibrils [12],3.6 ± 0.2 % of total protein
same,Relative composition of CSF proteins bound: Glucagon,glucagon fibrils [13],0.2 ± 0.1 % of total protein
same,Relative composition of plasma proteins bound: Ab2,Ab2 fibrils [14],12.1 ± 2.1 % of total protein
same,Relative composition of plasma proteins bound: Glucagon,glucagon fibrils [15],3.7 ± 0.1 % of total protein
same,contribution to the fibril interactomes,[16],0.2–3.6%
same,Relative composition of plasma proteins bound: Ab1,Ab1 fibrils [17],17.1 ± 1.9 % of total protein
same,Relative composition of plasma proteins bound: FAS4-AD,FAS4-AD aggregates [18],1.6 ± 0.4 % of total protein
same,Identification status of CSF protein bound: FAS4-AD,FAS4-AD aggregates [19],—
same,contribution to the fibril interactomes,[20],3.7–17.1%
same,Relative composition of CSF proteins bound: Ab2,Ab2 fibrils [21],1.3 ± 0.3 % of total protein
same,Relative composition of CSF proteins bound: Ab1,Ab1 fibrils [22],1.1 ± 0.0 % of total protein
same,Relative composition of plasma proteins bound: αSN,αSN fibrils [23],9.3 ± 2.2 % of total protein
